Measurements from patent publication EP0477217B1, “STABILIZED, POTENT GRF ANALOGS” (THE UPJOHN COMPANY, priority 1989, dated 1994).
Where no end group is shown, it is not given here.

Columns and labels:
[1] = system: release of GH by the pituitary; experiment: relative in vivo potency of GRF analogs (Table I); settings: expected from the relative in vivo potency at a dose of 0.01 nmol/kg; ED50 not determined
[2] = system: plasma DPP-IV; type: in vitro ADME, bovine
Protocol: Evidence of the improved metabolic stability of the compounds of this invention (when compared to native GRF) is illustrated in Table I by the in vitro stability data provided. It is noteworthy that in bovine plasma in vitro, the analogs having […], Val², Ile² or Leu² were not cleaved after residue 2 by plasma DPP-IV under the experimental conditions used in the study (one hour plasma incubation).

| DPP-IV related cleavage [2] | Substance | potency relative to its isomer Leu2 Ala15 Leu27 bGRF(1-29)NH2, trifluoroacetate salt, when the ED50 of each is determined and compared [1] |
| --- | --- | --- |
| – | Ile² Ala¹⁵ Leu²⁷ bGRF(1-29)NH₂, trifluoroacetate salt [Cpd. No. 3] | 10-20 times |
| slight DPP-IV related cleavage | YTDAIFTNSYRKVLAQLSARKLLQDILNR-NH2 [Cpd. No. 1, Thr² Ala¹⁵ Leu²⁷ bGRF(1-29)NH₂, trifluoroacetate salt] | – |
